Test results as given in patent publication US20230076310A1, “COMPOSITION USING NOVEL LACTOBACILLUS PLANTARUM KC3 STRAIN FOR PREVENTION OR TREATMENT OF IMMUNE IMPAIRMENT, RESPIRATORY INFLAMMATORY DISEASE, ALLERGY, AND ASTHMA AND USE THEREOF” (KT&G CORPORATION, priority 2020, published 2023).

Columns and labels:
Type in all cases: in vivo, BALb/c male mice
[1] = system: total number of cells in bronchoalveolar lavage (BAL) fluid; test: Total number of cells in BAL fluid, mouse model of respiratory damage by air pollutants; conditions: oral, 11 days (KC3 1×10^9 CFU/mouse; positive control 3 mg per kg BW per day), BAL fluid on 12th day
Procedure: (§1) BALb/c male mice (Orient Bio Inc., 8-week-old) were divided into groups of 6 mice, and for all groups except for the normal group, components of air pollutants, i.e., 10 mg/ml of coal combustible materials, 10 mg/ml of fly ash, and 5 mg/ml of diesel exhaust particle (DEP) were diluted so that a final concentration of Alum was 1%, and so that a final concentration of each component was 1.5 mg/ml for coal combustible material/fly ash and […] for DEP in a mixture. Then, on each of the 4th, 7th, and 10th days from the start of the experiment, 50 μl of the mixture was directly injected into the airway and nose of the experimental animals according to the Intra-Nazal-Trachea (INT) injection method described in the document (Lim et al., Free Radic Biol Med. 25(6), 635-644. (1998), Shin et al., Korean J. Medicinal Crop Sci 27(3), 218-231. (2019)).
(§2) For a positive control group (dexamethasone, Sigma D2915), lactic acid bacteria (Lactobacillus plantarum KC3, KC3) was diluted at a concentration of 1×10^9 CFU/mouse in a solution containing 0.5% sodium carboxymethyl cellulose (CMC, 419273, Sigma-Aldrich), and then orally administered at a dosage of 3 mg per kg of body weight (BW) per day (for 11 days). On the 12th day after the start of the experiment, an autopsy was performed on the mice, and bronchoalveolar lavage (BAL) fluid was collected. […]

[2] = system: IL-17A; test: Inflammation factors in BAL fluid (ELISA), mouse model of respiratory damage by air pollutants; conditions: oral, 11 days (KC3 1×10^9 CFU/mouse; positive control 3 mg per kg BW per day)
Procedure: as §1
(§3) For a positive control group (dexamethasone, Sigma D2915), lactic acid bacteria (Lactobacillus plantarum KC3, KC3) was diluted at a concentration of 1×10^9 CFU/mouse in a solution containing 0.5% sodium carboxymethyl cellulose (CMC, 419273, Sigma-Aldrich), and then orally administered at a dosage of 3 mg per kg of body weight (BW) per day (for 11 days). On the 12th day after the start of the experiment, an autopsy was performed on the mice, and bronchoalveolar lavage (BAL) fluid was collected.
(§4) To confirm effects of the samples in Examples above on expression levels of inflammation factors in the BAL fluid, an experiment was carried out as follows by applying the method described in the document (Brandt E B et al., J. Allergy Clin. Immunol., 132(5):1194-1204, (2013)).
(§5) An evaluation test was performed using ELISA to measure the expression levels of inflammation factors, such as IL-17A, TNF-α MIP2, and CXCL-1, in the BAL fluid.
(§6) The experiment was carried out in the same manner as in Experimental Examples 4-2 and 4-3, except that […].
(§7) The expression levels of IL-17A, TNF-α MIP2, and CXCL-1 in the BAL fluid were measured using ELISA. IL-17A antibodies (M1700, R&D Systems, Minneapolis, USA), TNF-α antibodies (MTA00B, R&D Systems, Minneapolis, USA), MIP2 antibodies (MM200, R&D Systems, Minneapolis, USA), and CXCL-1 antibodies (MKC00B, R&D Systems, Minneapolis, USA) were diluted with a buffer solution and coated micro-wells, and then cultured at 4° C. for 16 hours. Each well was washed with a washing buffer solution three times, and 10-fold diluted […] was dispensed at 100 μl per well.
(§8) After being left at room temperature for one hour, the wells were washed twice. Then, 100 μl of Avidin-HRP-conjugated antibodies (DY007, R&D Systems, Minneapolis, USA) was treated thereon, and the wells were left again at room temperature for one hour, followed by washing again. A TMB substrate solution (DY007, R&D Systems, Minneapolis, USA) was dispensed at 100 μl per well, and the well plate was left in shadow for 30 minutes. Then, 50 μl of a stopping solution (DY007, R&D Systems, Minneapolis, USA) was treated thereon, and absorbance of the […] was measured at 450 nm.

[3] = system: MIP2; test: as above; conditions: oral, 11 days (KC3 1×10^9 CFU/mouse; positive control 3 mg per kg BW per day)
Procedure: as §1, §3, §4, §5, §6, §7, §8

[4] = system: TNF-α; test: as above; conditions: oral, 11 days (KC3 1×10^9 CFU/mouse; positive control 3 mg per kg BW per day)
Procedure: as §1, §3, §4, §5, §6, §7, §8

[5] = system: CXCL-1; test: as above; conditions: oral, 11 days (KC3 1×10^9 CFU/mouse; positive control 3 mg per kg BW per day)
Procedure: as §1, §3, §4, §5, §6, §7, §8

[6] = system: neutrophils in BAL fluid; test: Number of neutrophils in BAL fluid, mouse model of respiratory damage by air pollutants; conditions: oral, 11 days (KC3 1×10^9 CFU/mouse; positive control 3 mg per kg BW per day)
Procedure: as §1, §2

C[C@@H]1C[C@H]2[C@@H]3CCC4=CC(=O)C=C[C@]4(C)[C@@]3(F)[C@@H](O)C[C@]2(C)[C@@]1(O)C(=O)CO [Positive control group, dexamethasone]
Inhibition rate (based on induction group), total BAL cell [1]: 11% | Total BAL cell ([1]; induction group 81.2 ± 19.8): 72.6 ± 9.5 ×10^4 cells/ml | IL-17A inhibition rate (%) based on induced group [2]: (47%) | IL-17A concentration in BAL fluid ([2]; ELISA, induction group 13.4 ± 1.5): 7.0 ± 0.8 pg/mL | MIP2 inhibition rate (%) based on induced group [3]: (19%) | MIP2 concentration in BAL fluid ([3]; ELISA, induction group 68 ± 7): 55 ± 9 pg/mL | TNF-α inhibition rate (%) based on induced group [4]: (66%) | TNF-α concentration in BAL fluid ([4]; ELISA, induction group 366 ± 45): 121 ± 14 pg/mL | CXCL-1 inhibition rate (%) based on induced group [5]: (46%) | CXCL-1 concentration in BAL fluid ([5]; ELISA, induction group 327 ± 41): 174 ± 15 pg/mL | Inhibition rate (based on induced group), neutrophils [6]: 10% | Neutrophile No of BAL cel (400X) ([6]; Diff-Qick staining, induction group 119 ± 13): 108 ± 9
